In the supplement of paper PMC12463676, “Small-molecule dissolution of stress granules by redox modulation benefits ALS models” (Nature Chemical Biology, 2025):

Tests used:
[1] = compound: NC(=O)CCCCC1CCSS1 [lipoamide]; assay: thermal stability z-score vs DMSO; higher = more thermally stabilized by treatment; settings: HeLa, lipoamide concentration 100 µM
Procedure: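 Cellular thermal proteome profiling in HeLa cells. Cells were treated with 100 µM lipoamide for 1 h, with or without 1 mM arsenate for a further 1 h, then heated to ten temperatures (37-66.3 °C), and soluble protein was quantified by TMT mass spectrometry relative to 0.1% DMSO controls. The thermal stability score (sum of log2 fold changes minus the abundance score) was transformed to a z-score; mean of n = 3 experiments.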

[2] = compound: O=[As]([O-])(O)O.[K+] [potassium arsenate]; assay: as above; settings: HeLa; arsenate concentration 1 mM
Procedure: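 Cellular thermal proteome profiling in HeLa cells treated with 1 mM arsenate for 1 h (DMSO pretreatment), heated to ten temperatures (37-66.3 °C). Soluble protein was quantified by TMT mass spectrometry relative to DMSO controls; the thermal stability score was transformed to a z-score; mean of n = 3 experiments.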

[3] = arsenate co-treatment: 1 mM arsenate 1 h
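Further: each temperature applied for 3 min, abundance score taken as mean log2 fold change at the two lowest temperatures, z-score obtained by mean subtraction and division by SD.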

Chain of UniProt P27361 (P27361 whole entry): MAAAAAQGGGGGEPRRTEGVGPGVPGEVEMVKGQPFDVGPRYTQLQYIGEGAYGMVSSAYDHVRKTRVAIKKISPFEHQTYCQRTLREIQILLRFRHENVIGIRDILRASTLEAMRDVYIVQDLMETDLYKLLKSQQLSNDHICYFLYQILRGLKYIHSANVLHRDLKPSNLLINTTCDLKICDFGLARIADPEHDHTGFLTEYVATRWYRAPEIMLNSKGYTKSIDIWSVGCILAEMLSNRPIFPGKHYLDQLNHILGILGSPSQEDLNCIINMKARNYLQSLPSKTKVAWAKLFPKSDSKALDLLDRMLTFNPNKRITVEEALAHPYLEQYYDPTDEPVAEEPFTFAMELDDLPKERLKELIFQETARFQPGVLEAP
Chain of UniProt Q12874 (Q12874 whole entry): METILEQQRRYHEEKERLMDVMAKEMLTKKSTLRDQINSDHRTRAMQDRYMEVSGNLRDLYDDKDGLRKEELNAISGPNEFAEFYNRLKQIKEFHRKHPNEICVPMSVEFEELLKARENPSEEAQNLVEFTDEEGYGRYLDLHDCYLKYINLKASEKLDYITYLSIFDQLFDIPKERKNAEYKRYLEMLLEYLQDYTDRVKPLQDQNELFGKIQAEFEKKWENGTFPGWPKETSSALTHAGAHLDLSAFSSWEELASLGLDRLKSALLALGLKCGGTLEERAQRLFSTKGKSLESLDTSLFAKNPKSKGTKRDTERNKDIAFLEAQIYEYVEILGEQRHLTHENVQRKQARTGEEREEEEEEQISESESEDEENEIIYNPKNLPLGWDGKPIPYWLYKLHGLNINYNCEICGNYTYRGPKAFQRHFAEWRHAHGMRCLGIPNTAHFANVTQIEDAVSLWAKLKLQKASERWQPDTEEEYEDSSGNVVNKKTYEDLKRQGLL
Chain of UniProt O00425 (O00425 whole entry): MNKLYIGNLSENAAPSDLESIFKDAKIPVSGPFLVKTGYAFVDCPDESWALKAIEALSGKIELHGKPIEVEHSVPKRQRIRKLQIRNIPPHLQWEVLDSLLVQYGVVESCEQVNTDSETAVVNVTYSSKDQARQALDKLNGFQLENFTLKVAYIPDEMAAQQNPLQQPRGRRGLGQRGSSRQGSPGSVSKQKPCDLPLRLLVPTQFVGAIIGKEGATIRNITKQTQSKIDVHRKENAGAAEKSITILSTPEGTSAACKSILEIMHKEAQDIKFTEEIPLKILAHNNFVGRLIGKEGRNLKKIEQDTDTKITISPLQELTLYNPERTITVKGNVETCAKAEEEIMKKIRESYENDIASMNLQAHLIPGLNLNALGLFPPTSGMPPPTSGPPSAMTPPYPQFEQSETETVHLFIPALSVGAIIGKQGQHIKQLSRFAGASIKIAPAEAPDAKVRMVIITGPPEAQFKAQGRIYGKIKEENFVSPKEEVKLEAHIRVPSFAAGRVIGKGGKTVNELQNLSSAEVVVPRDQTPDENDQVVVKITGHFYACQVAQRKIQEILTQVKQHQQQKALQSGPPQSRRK
Chain of UniProt P51687 (P51687 whole entry): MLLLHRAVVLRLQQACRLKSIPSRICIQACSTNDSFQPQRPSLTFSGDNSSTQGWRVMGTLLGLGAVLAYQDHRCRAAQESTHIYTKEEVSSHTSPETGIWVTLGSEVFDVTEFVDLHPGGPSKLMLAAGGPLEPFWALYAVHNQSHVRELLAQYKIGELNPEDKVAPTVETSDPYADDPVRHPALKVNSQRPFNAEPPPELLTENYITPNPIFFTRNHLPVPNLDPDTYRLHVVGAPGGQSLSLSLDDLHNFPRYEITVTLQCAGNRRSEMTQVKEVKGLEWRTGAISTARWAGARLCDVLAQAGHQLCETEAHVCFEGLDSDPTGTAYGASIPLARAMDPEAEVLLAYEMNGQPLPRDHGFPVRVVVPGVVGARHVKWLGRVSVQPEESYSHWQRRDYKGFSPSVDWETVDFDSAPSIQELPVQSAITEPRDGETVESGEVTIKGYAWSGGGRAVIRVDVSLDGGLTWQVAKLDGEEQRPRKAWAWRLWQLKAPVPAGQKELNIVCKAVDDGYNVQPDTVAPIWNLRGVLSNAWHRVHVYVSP
Chain of UniProt Q8TBZ6 (Q8TBZ6 whole entry): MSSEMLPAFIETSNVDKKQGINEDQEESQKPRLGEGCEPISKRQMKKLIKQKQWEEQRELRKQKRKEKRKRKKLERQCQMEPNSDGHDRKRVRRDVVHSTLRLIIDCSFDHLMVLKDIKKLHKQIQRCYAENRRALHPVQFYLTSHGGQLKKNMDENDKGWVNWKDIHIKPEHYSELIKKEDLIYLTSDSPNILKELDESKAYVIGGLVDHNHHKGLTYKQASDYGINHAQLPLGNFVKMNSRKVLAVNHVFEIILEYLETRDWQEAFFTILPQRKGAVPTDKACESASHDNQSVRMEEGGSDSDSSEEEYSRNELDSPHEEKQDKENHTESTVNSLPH
Chain of UniProt Q5W0V3 (Q5W0V3 whole entry): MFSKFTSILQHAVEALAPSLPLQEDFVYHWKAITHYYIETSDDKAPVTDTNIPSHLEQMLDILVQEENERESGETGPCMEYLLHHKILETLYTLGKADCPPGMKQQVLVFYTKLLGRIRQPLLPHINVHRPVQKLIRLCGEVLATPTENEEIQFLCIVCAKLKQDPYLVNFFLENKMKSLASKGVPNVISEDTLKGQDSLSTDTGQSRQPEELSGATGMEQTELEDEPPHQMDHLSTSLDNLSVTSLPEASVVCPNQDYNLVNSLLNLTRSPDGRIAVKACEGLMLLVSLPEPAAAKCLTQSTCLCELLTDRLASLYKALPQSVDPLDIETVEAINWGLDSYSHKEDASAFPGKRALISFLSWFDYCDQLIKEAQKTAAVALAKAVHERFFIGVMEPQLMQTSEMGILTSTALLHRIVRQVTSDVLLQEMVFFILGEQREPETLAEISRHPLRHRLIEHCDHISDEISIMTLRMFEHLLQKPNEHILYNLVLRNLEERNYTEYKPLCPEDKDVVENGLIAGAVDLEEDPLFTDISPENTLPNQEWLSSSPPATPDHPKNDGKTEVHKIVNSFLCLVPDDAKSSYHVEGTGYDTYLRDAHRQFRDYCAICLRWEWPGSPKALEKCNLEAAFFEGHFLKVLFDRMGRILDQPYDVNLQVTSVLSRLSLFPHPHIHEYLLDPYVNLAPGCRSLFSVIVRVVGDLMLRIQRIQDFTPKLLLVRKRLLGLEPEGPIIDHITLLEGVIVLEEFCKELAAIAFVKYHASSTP
Chain of UniProt Q9H0C8 (Q9H0C8 whole entry): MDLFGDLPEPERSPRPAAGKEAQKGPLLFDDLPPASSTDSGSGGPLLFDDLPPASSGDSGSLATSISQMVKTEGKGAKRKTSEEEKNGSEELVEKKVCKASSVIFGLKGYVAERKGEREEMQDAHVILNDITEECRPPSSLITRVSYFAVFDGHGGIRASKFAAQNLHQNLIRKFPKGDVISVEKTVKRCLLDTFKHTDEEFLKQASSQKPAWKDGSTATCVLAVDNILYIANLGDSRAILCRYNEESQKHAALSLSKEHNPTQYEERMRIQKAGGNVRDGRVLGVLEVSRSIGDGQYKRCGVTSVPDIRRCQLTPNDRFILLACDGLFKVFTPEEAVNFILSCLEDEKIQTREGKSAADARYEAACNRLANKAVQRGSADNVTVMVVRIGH
Chain of UniProt Q5VTR2 (Q5VTR2 whole entry): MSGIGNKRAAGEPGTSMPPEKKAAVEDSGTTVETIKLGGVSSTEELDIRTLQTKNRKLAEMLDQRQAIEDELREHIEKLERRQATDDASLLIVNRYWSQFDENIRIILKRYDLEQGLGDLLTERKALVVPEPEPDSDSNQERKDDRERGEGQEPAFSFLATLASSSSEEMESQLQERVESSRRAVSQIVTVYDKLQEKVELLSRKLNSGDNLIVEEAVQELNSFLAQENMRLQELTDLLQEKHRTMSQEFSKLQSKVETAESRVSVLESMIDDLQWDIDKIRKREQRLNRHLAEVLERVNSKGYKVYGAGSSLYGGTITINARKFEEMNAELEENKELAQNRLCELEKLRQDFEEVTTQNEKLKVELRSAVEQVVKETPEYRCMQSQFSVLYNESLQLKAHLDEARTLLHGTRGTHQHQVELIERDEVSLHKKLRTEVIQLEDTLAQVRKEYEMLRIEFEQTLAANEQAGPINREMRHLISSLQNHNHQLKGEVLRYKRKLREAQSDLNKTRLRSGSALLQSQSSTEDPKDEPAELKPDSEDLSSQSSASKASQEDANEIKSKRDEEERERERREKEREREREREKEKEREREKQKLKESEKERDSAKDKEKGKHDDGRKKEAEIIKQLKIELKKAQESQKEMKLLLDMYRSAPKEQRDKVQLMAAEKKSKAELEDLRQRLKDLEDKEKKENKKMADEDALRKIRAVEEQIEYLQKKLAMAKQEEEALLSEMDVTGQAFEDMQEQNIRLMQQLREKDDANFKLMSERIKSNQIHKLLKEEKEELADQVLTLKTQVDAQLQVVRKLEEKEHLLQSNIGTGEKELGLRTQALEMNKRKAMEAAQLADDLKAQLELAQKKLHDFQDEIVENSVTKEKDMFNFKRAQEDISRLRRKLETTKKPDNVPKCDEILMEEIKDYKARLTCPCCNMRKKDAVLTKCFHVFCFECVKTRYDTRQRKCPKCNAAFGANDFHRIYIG
Chain of UniProt Q17RY6 (Q17RY6 whole entry): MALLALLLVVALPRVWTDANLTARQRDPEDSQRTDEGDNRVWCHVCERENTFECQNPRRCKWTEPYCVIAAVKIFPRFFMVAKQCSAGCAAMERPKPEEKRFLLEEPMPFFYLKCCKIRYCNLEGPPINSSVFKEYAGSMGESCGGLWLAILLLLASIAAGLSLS
Chain of UniProt P16949 (P16949 whole entry): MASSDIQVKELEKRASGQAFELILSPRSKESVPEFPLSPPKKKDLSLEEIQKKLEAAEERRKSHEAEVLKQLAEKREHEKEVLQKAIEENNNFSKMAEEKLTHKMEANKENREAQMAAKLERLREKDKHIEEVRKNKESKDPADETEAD
Chain of UniProt Q5JTJ3 (Q5JTJ3 whole entry): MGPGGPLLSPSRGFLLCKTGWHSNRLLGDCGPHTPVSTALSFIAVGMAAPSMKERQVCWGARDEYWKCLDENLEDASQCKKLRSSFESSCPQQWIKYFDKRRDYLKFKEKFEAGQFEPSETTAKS

Target	thermal stability z-score [1, 3]	thermal stability z-score ([1]; arsenate co-treatment: none)	thermal stability z-score [2]
NRF1 (UniProt Q16656)	-0.282	-0.0693	0.311
NME3 (UniProt Q13232)	0.0656	0.615	0.673
PCLO (UniProt Q9Y6V0)	0.448	0.235	-0.0814
KTN1 (UniProt Q86UP2)	0.265	0.505	0.294
TK1 (UniProt P04183)	0.233	0.418	-0.307
PIKFYVE (UniProt Q9Y2I7)	0.00547	-0.0522	-0.189
ADAM15 (UniProt Q13444)	-1.37	-1.49	-0.1
TOMM22 (UniProt Q9NS69)	0.165	0.384	0.468
FSTL3 (UniProt O95633)	-3.19	-2.34	0.0815
LY6K (UniProt Q17RY6)	-3.06	-2.7	2.42
TRMT10A (UniProt Q8TBZ6)	-0.927	-0.427	0.266
ILKAP (UniProt Q9H0C8)	0.624	0.292	-0.406
NABP2 (UniProt Q9BQ15)	-0.423	-0.174	-0.112
ACY1 (UniProt Q03154)	0.304	0.38	0.873
POM121C (UniProt A8CG34)	1.24	-0.678	1.38
SPATS2 (UniProt Q86XZ4)	-0.0725	0.644	-0.00843
CHRAC1 (UniProt Q9NRG0)	-0.123	0.285	-0.28
WRB (UniProt O00258)	-0.618	0.0706	-0.55
HBS1L (UniProt Q9Y450)	0.179	0.0726	-0.278
QKI (UniProt Q96PU8)	-0.625	0.069	0.0813
UFD1L (UniProt Q92890)	-0.427	-0.0782	0.36
RRP7A (UniProt Q9Y3A4)	0.108	-0.213	-0.216
TMEM87B (UniProt Q96K49)	-0.402	0.56	-0.0195
FAM160B1 (UniProt Q5W0V3)	-0.512	-0.179	-1.49
HMMR (UniProt O75330)	-0.103	0.233	0.594
SHKBP1 (UniProt Q8TBC3)	0.0505	0.242	-0.372
C2ORF47 (UniProt Q8WWC4)	0.0998	-0.181	1.09
CTSA (UniProt P10619)	-0.264	-0.283	-0.0364

Target	thermal stability z-score [1, 3]	thermal stability z-score ([1]; arsenate co-treatment: none)	thermal stability z-score [2]
GSN (UniProt P06396)	0.0431	-0.257	0.0381
RAB31 (UniProt Q13636)	0.762	0.822	0.42
RABGGTA (UniProt Q92696)	-0.0918	-0.138	-0.000862
CBLB (UniProt Q13191)	0.338	-0.251	-0.0258
NELFB (UniProt Q8WX92)	-0.286	0.576	-0.0666
KHDRBS1 (UniProt Q07666)	-0.091	0.104	-1.16
RNF20 (UniProt Q5VTR2)	-0.218	-0.026	-0.112
GAB1 (UniProt Q13480)	-0.149	0.0158	-0.0474
NUBP2 (UniProt Q9Y5Y2)	0.35	-0.855	-0.461
SUOX (UniProt P51687)	-0.266	-0.279	0.168
IGF2BP3 (UniProt O00425)	-0.521	-0.325	-0.579
SF3A3 (UniProt Q12874)	0.351	0.639	-0.503
ARHGAP1 (UniProt Q07960)	-1.02	-0.692	-0.115
GRAMD3 (UniProt Q96HH9)	0.155	0.0561	-0.0476
PAAF1 (UniProt Q9BRP4)	-0.442	-0.906	-0.478
UniProt G3V599	-0.297	-0.663	0.593
B3GALNT2 (UniProt Q8NCR0)	-0.788	-0.394	-1.27
STMN1 (UniProt P16949)	1.14	1.18	0.78
SCO2 (UniProt O43819)	-0.169	0.0623	0.538
RHOG (UniProt P84095)	0.489	0.491	0.00682
ARID1A (UniProt O14497)	0.0489	-0.0643	-0.205
DMWD (UniProt Q09019)	0.459	-0.167	0.407
CEP78 (UniProt Q5JTW2)	-0.104	-0.0338	-0.165
MCTS1 (UniProt Q9ULC4)	-0.523	-0.0571	-1.02
MAPK3 (UniProt P27361)	-0.115	-0.114	-0.214
FAM83H (UniProt Q6ZRV2)	-0.0915	0.0556	0.0326
COA6 (UniProt Q5JTJ3)	1.7	1.85	0.756
